Key:
[1] = biological target: T1, human serum albumin (HSA) (Homo sapiens, UniProt P02768); assay: Trp fluorescence quenching of HSA (Stern–Volmer analysis); type: binding; design: unit not given here; conditions: 0.3 mg/mL HSA, excitation 280 nm; means ± SE
T1 construct: BSA (F-V) and HSA (F-V) were purchased from Nacalai Tesque (Kyoto, Japan); purchased Nacalai Tesque (Kyoto, Japan)
Procedure: Finally, we investigated the interaction between HSA and catechins and their derivatives (Figure 6). HSA has one Trp residue (Trp-214) located in drug-binding site I, and this residue behaves similarly to the Trp-213 of BSA [22]. […] Moreover, shift of the fluorescence peak wavelength against HSA was weaker than that against BSA.
(§1) Analysis of fluorescence quenching was performed as described previously. A series of mixtures was prepared with catechins or their derivatives at various concentrations (as indicated in each figure legend) and a fixed concentration of BSA (0.3 mg/mL). After the mixture was incubated at 20 °C for 20 min, the fluorescence spectrum of BSA in the mixture was measured at 20 °C in 50 mM sodium phosphate buffer (pH 7.0) at an excitation wavelength of 280 nm and with emission in the range 290–450 nm. All measurements were performed in triplicate. Fluorescence quenching data were analyzed by the Stern–Volmer equation (Equation (1)): F0 = F (1 + Kq × Q),(1) where F0 and F are the relative fluorescence intensities of BSA without and with catechin, respectively, Kq is the Stern–Volmer quenching constant, and Q is the concentration of catechin.

[2] = biological target: T2, bovine serum albumin (BSA) (Bos taurus, UniProt P02769); assay: Trp fluorescence quenching of BSA (Stern–Volmer analysis); type: binding; design: Kq value (Stern–Volmer quenching constant) against BSA: unit not given here; conditions: 0.3 mg/mL BSA; for Kq value (Stern–Volmer quenching constant) against BSA: 20 °C, 50 mM sodium phosphate buffer pH 7.0, excitation 280 nm, means ± SE
T2 construct: BSA (F-V) and HSA (F-V) were purchased from Nacalai Tesque (Kyoto, Japan); purchased Nacalai Tesque (Kyoto, Japan)
T2 sequence (P02769 25-607): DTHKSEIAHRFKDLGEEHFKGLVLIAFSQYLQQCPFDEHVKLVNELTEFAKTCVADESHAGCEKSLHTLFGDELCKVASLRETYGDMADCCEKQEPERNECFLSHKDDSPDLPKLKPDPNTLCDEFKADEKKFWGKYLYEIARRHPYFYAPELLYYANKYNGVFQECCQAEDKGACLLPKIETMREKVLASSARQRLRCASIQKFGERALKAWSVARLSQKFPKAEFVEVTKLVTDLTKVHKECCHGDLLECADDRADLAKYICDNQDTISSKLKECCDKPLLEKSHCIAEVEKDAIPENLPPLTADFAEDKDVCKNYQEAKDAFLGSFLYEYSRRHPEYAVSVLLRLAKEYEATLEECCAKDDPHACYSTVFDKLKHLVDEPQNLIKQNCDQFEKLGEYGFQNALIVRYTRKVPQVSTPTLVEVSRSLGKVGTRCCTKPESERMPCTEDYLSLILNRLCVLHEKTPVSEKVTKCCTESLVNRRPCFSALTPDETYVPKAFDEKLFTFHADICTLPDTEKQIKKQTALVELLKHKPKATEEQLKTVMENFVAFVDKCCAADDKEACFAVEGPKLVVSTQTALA
Procedure: The fluorescence spectra of another natural catechin was also measured (data not shown).
From the data obtained by fluorescence analysis, the Stern–Volmer quenching constants (Kq values) were calculated by the Stern–Volmer relationship.
as §1

T1 sequence (P02768 25-609): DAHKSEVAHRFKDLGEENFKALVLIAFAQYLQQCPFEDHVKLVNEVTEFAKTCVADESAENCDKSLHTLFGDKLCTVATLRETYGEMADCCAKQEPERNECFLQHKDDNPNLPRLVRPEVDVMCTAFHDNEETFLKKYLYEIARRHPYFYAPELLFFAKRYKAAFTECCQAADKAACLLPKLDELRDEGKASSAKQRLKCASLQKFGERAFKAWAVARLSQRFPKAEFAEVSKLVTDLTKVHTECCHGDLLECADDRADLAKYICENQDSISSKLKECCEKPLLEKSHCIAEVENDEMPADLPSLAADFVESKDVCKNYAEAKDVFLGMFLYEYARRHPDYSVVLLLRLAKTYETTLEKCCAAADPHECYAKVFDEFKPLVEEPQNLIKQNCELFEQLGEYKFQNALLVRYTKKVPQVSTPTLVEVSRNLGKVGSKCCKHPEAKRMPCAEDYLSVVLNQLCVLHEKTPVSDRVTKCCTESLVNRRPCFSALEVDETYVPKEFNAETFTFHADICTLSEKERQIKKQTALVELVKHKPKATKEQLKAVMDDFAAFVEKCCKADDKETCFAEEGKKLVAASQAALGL

Kq value (Stern–Volmer quenching constant) against HSA [1]	Kq value (Stern–Volmer quenching constant) against BSA [2]	effect on fluorescence intensity of Trp residues of BSA ([2]; excitation 280 nm)	shift of fluorescence peak wavelength of BSA ([2]; excitation 280 nm)	Structure (SMILES)
0.033 ± 0.0065	0.225 ± 0.0192	decreased in a dose-dependent manner	red-shifted	O=C(O[C@@H]1Cc2c(O)cc(O)cc2O[C@@H]1c1cc(O)c(O)c(O)c1)c1cc(O)c(O)c(O)c1 [EGCg, (−)-epigallocatechin gallate]
0.007 ± 0.0011	0.060 ± 0.0118	–	–	O=C(O[C@@H]1Cc2c(O)cc(O)cc2O[C@@H]1c1ccc(O)c(O)c1)c1cc(O)c(O)c(O)c1 [ECg]
0.009 ± 0.0008	0.019 ± 0.0030	–	–	O=C(O[C@H]1Cc2c(O)cc(O)cc2O[C@@H]1c1cc(O)c(O)c(O)c1)c1cc(O)c(O)c(O)c1 [GCg]
0.011 ± 0.0011	0.034 ± 0.0092	–	–	O=C(O[C@H]1Cc2c(O)cc(O)cc2O[C@@H]1c1ccc(O)c(O)c1)c1cc(O)c(O)c(O)c1 [Cg, (−)-catechin gallate]

The remaining lines, values behind:

Structure (SMILES)	Kq value (Stern–Volmer quenching constant) against HSA [1]	Kq value (Stern–Volmer quenching constant) against BSA [2]	effect on fluorescence intensity of Trp residues of BSA ([2]; excitation 280 nm)	shift of fluorescence peak wavelength of BSA ([2]; excitation 280 nm)
Oc1cc(O)c2c(c1)O[C@H](c1cc(O)c(O)c(O)c1)[C@H](O)C2 [EGC]	0.001 ± 0.0002	0.001 ± 0.0003	–	–
Oc1cc(O)c2c(c1)O[C@H](c1ccc(O)c(O)c1)[C@H](O)C2 [(−)-EC, epicatechin]	0.006 ± 0.0013	0.005 ± 0.0011	–	–
Oc1cc(O)c2c(c1)O[C@H](c1ccc(O)c(O)c1)[C@@H](O)C2 [(+)-C, catechin]	0.002 ± 0.0001	0.005 ± 0.0003	–	–
Oc1cc(O)c2c(c1)O[C@H](c1cc(O)c(O)c(O)c1)[C@@H](O)C2 [GC]	0.001 ± 0.0001	0.001 ± 0.0001	–	–
COc1cc(C(=O)O[C@@H]2Cc3c(O)cc(O)cc3O[C@@H]2c2cc(O)c(O)c(O)c2)cc(O)c1O [Methyl-EGCg, epigallocatechin-3-O-methyl gallate]	0.014 ± 0.0021	0.150 ± 0.0109	–	–

Source: article PMC6155608, “Substitution at the C-3 Position of Catechins Has an Influence on the Binding Affinities against Serum Albumin” (Molecules : A Journal of Synthetic Chemistry and Natural …, 2017)
